Measured values taken from patent US7696190B2, “16Alpha-methyl or ethyl substituted estrogens” (N.V. Organon, priority 2000, dated 2010).

Test system: human estrogen receptor α (hERα) or β receptor (hERβ)
Assay: in vitro transactivation bioassay (luciferase reporter) in recombinant CHO cells, estrogenic (agonist) activity compared with estradiol
Format: cell-based
Conditions: percentage agonist activity for ER α divided by percentage agonist activity for ER β; CHO cells co-transfected with hERα or hERβ, rat oxytocin promoter and luciferase reporter
Protocol: Compounds are tested for their estrogen receptor activity in a binding assay and in a transactivation assay. The estrogenic and antiestrogenic activity of compounds is determined in an in vitro bioassay with recombinant Chinese hamster ovary (CHO) cells stably co-transfected with the human estrogen receptor α (hERα) or β receptor (hERβ), the rat oxytocin promoter (RO) and the luciferase reporter gene (LUC). The estrogenic activity (potency ratio) of a test compound to stimulate the transactivation of the enzyme luciferase mediated via the estrogen receptors hERα or hERβ is compared with the standard estrogen estradiol. The antiestrogenic activity (potency ratio) of a test compound to inhibit the transactivation of the enzyme luciferase mediated via the estrogen receptors hERα or hERβ by the estrogen estradiol is compared with the standard ICI 164.384 (=(7α,17β)-N-butyl-3,17-dihydroxy-N-methylestra-1,3,5(10)-triene-7-undecanamide). A quantitative parameter for agonist selectivity is obtained by dividing the percentage agonist activity for ER α by the percentage agonist activity for ER β. Compound 11a has agonist selectivity for estrogen receptor α over estrogen receptor β of more than 86 times. Compound 26 has an agonist selectivity for ER α over ER β of 59 times. Compound 27 has agonist selectivity of 88.3 times.

C#CC1(O)C(C)CC2C3CCC4=C(CCC(O)C4)C3C(CC=C)CC21C (stereo not drawn) [Compound 27, (3α,11β,16α,17β)-16-methyl-11-(2-propenyl)-19-norpregn-5(10)-en-20-yne-3,17-diol]
agonist selectivity for estrogen receptor α over estrogen receptor β: 88.3 times
